These results are taken from patent US6660774B2, “Use of (+)-tramadol, O-demethyltramadol or (+)-O-demethyl-tramadol, O-desmethyl-N-mono-desmethyl-tramadol or (+)- O-desmethyl-N-mono-desmethyltramadol” (Gruenethal GmbH, priority 1999, dated 2003).

SMILES strings stand for the structures.

For data set [1] the following is noted: analgesic effects less pronounced on intravenous than on intracerebroventricular administration; cited from earlier work.
The subject of data set [2] is virgin, female Sprague-Dawley rats (bladder function). As to the kind of experiment: Cystometric testing on conscious, virgin rats. The format is in vivo, rat.
The mark [3] stands for this setting: 10.0 μg/kg i.t., Diff.: change relative to the initial value.
[4] abbreviates: 10.0 μg/kg i.t., h: after administration, at maximum action.
Setting [5] is: 10.0 μg/kg i.t., v: before administration (initial value).
Setting [6] is: 10.0 mg/kg i.v., Diff.: change relative to the initial value.
The mark [7] stands for this setting: 10.0 mg/kg i.v., h: after administration, at maximum action.
Where [8] appears, read: 10.0 mg/kg i.v., v: before administration (initial value).
[9] abbreviates: 5.0 mg/kg i.v., Diff.: change relative to the initial value.
[10] abbreviates: 5.0 mg/kg i.v., h: after administration, at maximum action.
Where [11] appears, read: 5.0 mg/kg i.v., v: before administration (initial value).

`CNCC1CCCCC1(O)c1cccc(O)c1` (stereo not shown) [M5, O-desmethyl-N-mono-desmethyltramadol]: in data set [1], the “penetration of the blood-brain barrier (in words)” value was “only a limited extent”.
Regarding `CN(C)CC1CCCCC1(O)c1cccc(O)c1` (stereo not shown) [O-demethyltramadol], the “effect on bladder function (in words)” value in data set [2] (even at low concentrations) is given as “clear effect”.
As for `CNCC1CCCCC1(O)c1cccc(O)c1` (single isomer, unassigned; (+)) [(+)-M5, (+)-O-desmethyl-N-mono-desmethyltramadol], in data set [2] (setting [3]), the Basal pressure entry is given as “Diff.: −9%”, the Bladder capacity entry is recorded as “Diff.: +61%”, the Inter-contraction interval entry is “Diff.: +38%” and the Micturition pressure entry is given as “Diff.: −46%”. In data set [2] (setting [3]), the Micturition volume entry is recorded as “Diff.: +36%”, the Residual volume result is listed as “Diff.: +162%” and the Threshold pressure result is on record as “Diff.: +46%”. Besides, in data set [2] (setting [4]), the Basal pressure result is listed as “h: 4.25 ± 0.33 cm H2O”, the Bladder capacity result was “h: 1.06 ± 0.06 ml”, the Inter-contraction interval result is listed as “h: 5.22 ± 0.27 min” and the Micturition pressure result is “h: 43 ± 6 cm H2O”. Further, in data set [2] (setting [4]), the Micturition volume result was “h: 0.72 ± 0.04 ml”, the Residual volume entry is reported as “h: 0.34 ± 0.04 ml” and the Threshold pressure result is reported as “h: 10.25 ± 1.01 cm H2O”. In addition, in data set [2] (setting [5]), the Basal pressure result was “v: 4.68 ± 0.74 cm H2O”, the Bladder capacity result was “v: 0.66 ± 0.05 ml”, the Inter-contraction interval result is on record as “v: 3.78 ± 0.35 min” and the Micturition pressure result is reported as “v: 80 ± 9 cm H2O”. In addition, in data set [2] (setting [5]), the Micturition volume result is given as “v: 0.53 ± 0.06 ml”, the Residual volume entry is reported as “v: 0.13 ± 0.01 ml” and the Threshold pressure result is on record as “v: 7.0 ± 0.93 cm H2O”. Also, the “threshold pressure (in words)” value in data set [2] (10 mg/kg i.v.) is “distinct rise”. The “interval between micturition (in words)” value in data set [2] (10.0 mg/kg i.v.) is “not shortened”. In addition, in data set [2] (setting [6]), the Basal pressure entry is listed as “Diff.: +4%”, the Bladder capacity entry is recorded as “Diff.: −18%”, the Inter-contraction interval result was “Diff.: −12%” and the Micturition pressure entry is “Diff.: −23%”. In data set [2] (setting [6]), the Micturition volume entry was “Diff.: +9%”, the Residual volume result is reported as “Diff.: −88%” and the Threshold pressure result is given as “Diff.: +69%”. Further, in data set [2] (setting [7]), the Basal pressure entry was “h: 3.95 ± 0.35 cm H2O”, the Bladder capacity result was “h: 0.72 ± 0.08 ml”, the Inter-contraction interval result is on record as “h: 4.30 ± 0.47 min” and the Micturition pressure entry is “h: 41 ± 3 cm H2O”. Further, in data set [2] (setting [7]), the Micturition volume result is on record as “h: 0.86 ± 0.10 ml”, the Residual volume entry is on record as “h: 0.01 ± 0.002 ml” and the Threshold pressure result is “h: 12.08 ± 1.47 cm H2O”. In data set [2] (setting [8]), the Basal pressure entry was “v: 3.78 ± 0.26 cm H2O”, the Bladder capacity entry is recorded as “v: 0.88 ± 0.09 ml”, the Inter-contraction interval entry is given as “v: 4.92 ± 0.53 min” and the Micturition pressure entry was “v: 53 ± 4 cm H2O”. Also, in data set [2] (setting [8]), the Micturition volume entry is “v: 0.79 ± 0.09 ml”, the Residual volume entry is “v: 0.08 ± 0.01 ml” and the Threshold pressure entry is reported as “v: 7.13 ± 0.47 cm H2O”. In data set [2] (intrathecally), the “bladder capacity (in words)” value was “distinct increases”, the “interval between micturition (in words)” value is reported as “distinct increases” and the “threshold pressure (in words)” value is reported as “increase”.
On to `COc1cccc(C2(O)CCCCC2CN(C)C)c1` (single isomer, unassigned; (-)) [(−)-Tramadol, (−)-tramadol, reference compound], for which, in data set [2] (setting [9]), the Basal pressure result is given as “Diff.: +2%”, the Bladder capacity result is reported as “Diff.: −8%”, the Micturition pressure entry is recorded as “Diff.: −15%” and the Micturition volume result was “Diff.: −6%”. For the same compound, in data set [2] (setting [9]), the Residual volume result is reported as “Diff.: −17%” and the Threshold pressure entry is “Diff.: −3%”. Also, in data set [2] (setting [10]), the Basal pressure entry is “h: 4.20 ± 0.30 cm H2O”, the Bladder capacity entry is recorded as “h: 1.10 ± 0.09 ml”, the Micturition pressure entry is “h: 59 ± 3 cm H2O” and the Micturition volume entry was “h: 1.01 ± 0.09 ml”. Also, in data set [2] (setting [10]), the Residual volume entry is “h: 0.10 ± 0.02 ml” and the Threshold pressure result was “h: 7.10 ± 0.44 cm H2O”. Also, in data set [2] (setting [11]), the Basal pressure entry is recorded as “v: 4.12 ± 0.40 cm H2O”, the Bladder capacity result is “v: 1.19 ± 0.13 ml”, the Micturition pressure entry is recorded as “v: 69 ± 4 cm H2O” and the Micturition volume result is given as “v: 1.07 ± 0.13 ml”. In addition, in data set [2] (setting [11]), the Residual volume result was “v: 0.12 ± 0.01 ml” and the Threshold pressure result is on record as “v: 7.32 ± 2.21 cm H2O”.
